Experimental data as given in ChEMBL document CHEMBL1201862, “PubChem BioAssay data set” (2004).
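Five concentrations, 48 hours, 96-well plates. GI50 = concentration required for 50% inhibition of growth.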 Activity calls are given as the source filed them. No stated cut-off is given here; in the data, active = GI50 up to about 1.1 µM and inactive = higher.

Tests used:
Experiment in all cases: NCI-60 cell line screen, 48 h
[1] = test system: T47D
[2] = test system: LOX IMVI
[3] = test system: IGROV-1
[4] = test system: Hs-578T
[5] = test system: UACC-257
[6] = test system: NCI-H226
[7] = test system: SNB-19
[8] = test system: M14
[9] = test system: UO-31
[10] = test system: MDA-MB-231
[11] = test system: OVCAR-3
[12] = test system: MDA-N
[13] = test system: COLO 205
[14] = test system: NCI-H23
[15] = test system: BT-549
[16] = test system: KM12
[17] = test system: MCF7
[18] = test system: HT-29
[19] = test system: ACHN
[20] = test system: HCC 2998

SMILES: COC(=O)[C@@H]1c2c(oc3cc(CO)cc(O)c3c2=O)C=C[C@H]1O
- GI50 [1]: 2.7 µM (inactive)
- GI50 [2]: 3.32 µM (inactive)
- GI50 [3]: 10.8 µM (inactive)
- GI50 [4]: 24.7 µM (inactive)
- GI50 [5]: 8.85 µM (inactive)
- GI50 [6]: 25.8 µM (inactive)
- GI50 [7]: 17.7 µM (inactive)
- GI50 [8]: 5.97 µM (inactive)
- GI50 [9]: 3.78 µM (inactive)
- GI50 [10]: 14.1 µM (inactive)
- GI50 [11]: 8.02 µM (inactive)
- GI50 [12]: 4.59 µM (inactive)
- GI50 [13]: 5.5 µM (inactive)
- GI50 [14]: 19 µM (inactive)
- GI50 [15]: 2.94 µM (inactive)
- GI50 [16]: 3.71 µM (inactive)
- GI50 [17]: 2.86 µM (inactive)
- GI50 [18]: 3.39 µM (inactive)

SMILES: CC(=O)C1=C(C)O[C@@H]2O[C@H](COCc3ccccc3)[C@@H](OCc3ccccc3)[C@H](O)[C@@H]2S1
- GI50 [1]: 5.9 µM (inactive)
- GI50 [2]: 21 µM (inactive)
- GI50 [3]: 21.1 µM (inactive)
- GI50 [4]: 17.9 µM (inactive)
- GI50 [19]: 23.3 µM (inactive)
- GI50 [5]: 18.3 µM (inactive)
- GI50 [6]: 18.8 µM (inactive)
- GI50 [7]: 38 µM (inactive)
- GI50 [8]: 20.4 µM (inactive)
- GI50 [9]: 22 µM (inactive)
- GI50 [10]: 20.3 µM (inactive)
- GI50 [11]: 15.2 µM (inactive)
- GI50 [12]: 22.6 µM (inactive)
- GI50 [13]: 22.2 µM (inactive)
- GI50 [14]: 20.4 µM (inactive)
- GI50 [15]: 21.8 µM (inactive)
- GI50 [16]: 19.6 µM (inactive)
- GI50 [18]: 19.6 µM (inactive)

SMILES: Cc1ccc2c(c1)C/C(=C\c1ccccc1C(=O)O)C2=O
- GI50 [1]: > 100 µM (inactive)
- GI50 [2]: > 100 µM (inactive)
- GI50 [3]: > 100 µM (inactive)
- GI50 [4]: > 100 µM (inactive)
- GI50 [19]: > 100 µM (inactive)
- GI50 [5]: > 100 µM (inactive)
- GI50 [6]: 37 µM (inactive)
- GI50 [7]: > 100 µM (inactive)
- GI50 [9]: 98.6 µM (inactive)
- GI50 [20]: > 100 µM (inactive)
- GI50 [11]: > 100 µM (inactive)
- GI50 [12]: > 100 µM (inactive)
- GI50 [13]: 35.6 µM (inactive)
- GI50 [14]: > 100 µM (inactive)
- GI50 [15]: > 100 µM (inactive)
- GI50 [16]: > 100 µM (inactive)
- GI50 [17]: > 100 µM (inactive)
- GI50 [18]: 40.6 µM (inactive)

SMILES: Clc1ccc(-c2ccc(-c3nn4c(CNc5ccccc5)nnc4s3)o2)c(Cl)c1
- GI50 [1]: 13.5 µM (inactive)
- GI50 [2]: > 100 µM (inactive)
- GI50 [3]: 22.8 µM (inactive)
- GI50 [4]: > 100 µM (inactive)
- GI50 [19]: > 100 µM (inactive)
- GI50 [5]: 53.1 µM (inactive)
- GI50 [6]: 97.3 µM (inactive)
- GI50 [7]: > 100 µM (inactive)
- GI50 [8]: 93.3 µM (inactive)
- GI50 [9]: > 100 µM (inactive)
- GI50 [10]: 69.8 µM (inactive)
- GI50 [11]: 45.2 µM (inactive)
- GI50 [12]: 45.1 µM (inactive)
- GI50 [13]: 28 µM (inactive)
- GI50 [14]: 53.6 µM (inactive)
- GI50 [15]: > 100 µM (inactive)
- GI50 [16]: 60 µM (inactive)
- GI50 [18]: 40.1 µM (inactive)

SMILES: CCOC(=O)CO/N=C\C1=CC(=O)C2CC1C2(C)C (stereo not drawn)
- GI50 [1]: > 100 µM (inactive)
- GI50 [2]: > 100 µM (inactive)
- GI50 [3]: > 100 µM (inactive)
- GI50 [4]: > 100 µM (inactive)
- GI50 [19]: > 100 µM (inactive)
- GI50 [5]: > 100 µM (inactive)
- GI50 [6]: > 100 µM (inactive)
- GI50 [7]: > 100 µM (inactive)
- GI50 [8]: > 100 µM (inactive)
- GI50 [9]: > 100 µM (inactive)
- GI50 [10]: > 100 µM (inactive)
- GI50 [11]: > 100 µM (inactive)
- GI50 [12]: > 100 µM (inactive)
- GI50 [13]: > 100 µM (inactive)
- GI50 [14]: > 100 µM (inactive)
- GI50 [15]: > 100 µM (inactive)
- GI50 [16]: > 100 µM (inactive)
- GI50 [17]: > 100 µM (inactive)
- GI50 [18]: > 100 µM (inactive)

SMILES: COc1cc2c(c(O)c1OC)CC1CCC(=O)N1C2c1cccc2ccccc12 (stereo not drawn)
- GI50 [1]: 18.9 µM (inactive)
- GI50 [2]: 23 µM (inactive)
- GI50 [3]: 24 µM (inactive)
- GI50 [4]: 19.7 µM (inactive)
- GI50 [19]: 29.3 µM (inactive)
- GI50 [5]: 23.6 µM (inactive)
- GI50 [7]: 15.6 µM (inactive)
- GI50 [8]: 17.4 µM (inactive)
- GI50 [9]: 17.6 µM (inactive)
- GI50 [10]: 16.4 µM (inactive)
- GI50 [20]: 16 µM (inactive)
- GI50 [11]: 22.2 µM (inactive)
- GI50 [12]: 16.3 µM (inactive)
- GI50 [13]: 15.6 µM (inactive)
- GI50 [14]: 24 µM (inactive)
- GI50 [15]: 22.3 µM (inactive)
- GI50 [16]: 23.9 µM (inactive)
- GI50 [17]: 30.9 µM (inactive)
- GI50 [18]: 18.2 µM (inactive)

SMILES: CCOC(=O)c1sc2nc1CSc1sc(=S)sc1SCc1nc(sc1C(=O)OCC)-c1nc(c(C(=O)OCC)s1)CSc1sc(=S)sc1SCc1nc-2sc1C(=O)OCC
- GI50 [1]: > 10 µM (inactive)
- GI50 [2]: > 10 µM (inactive)
- GI50 [3]: > 10 µM (inactive)
- GI50 [4]: > 10 µM (inactive)
- GI50 [19]: > 10 µM (inactive)
- GI50 [5]: > 10 µM (inactive)
- GI50 [7]: > 10 µM (inactive)
- GI50 [9]: > 10 µM (inactive)
- GI50 [10]: > 10 µM (inactive)
- GI50 [20]: > 10 µM (inactive)
- GI50 [11]: > 10 µM (inactive)
- GI50 [12]: > 10 µM (inactive)
- GI50 [13]: > 10 µM (inactive)
- GI50 [14]: > 10 µM (inactive)
- GI50 [15]: > 10 µM (inactive)
- GI50 [16]: > 10 µM (inactive)
- GI50 [17]: > 10 µM (inactive)
- GI50 [18]: > 10 µM (inactive)

SMILES: CC(C)C(=O)Oc1cc2c(=O)oc3c(OC(=O)C(C)C)c(OC(=O)C(C)C)cc4c(=O)oc(c1OC(=O)C(C)C)c2c34
- GI50 [2]: > 100 µM (inactive)
- GI50 [3]: > 100 µM (inactive)
- GI50 [4]: > 100 µM (inactive)
- GI50 [19]: > 100 µM (inactive)
- GI50 [5]: > 100 µM (inactive)
- GI50 [6]: > 100 µM (inactive)
- GI50 [7]: > 100 µM (inactive)
- GI50 [8]: > 100 µM (inactive)
- GI50 [9]: > 100 µM (inactive)
- GI50 [10]: > 100 µM (inactive)
- GI50 [20]: > 100 µM (inactive)
- GI50 [11]: > 100 µM (inactive)
- GI50 [12]: > 100 µM (inactive)
- GI50 [13]: > 100 µM (inactive)
- GI50 [14]: > 100 µM (inactive)
- GI50 [15]: > 100 µM (inactive)
- GI50 [16]: > 100 µM (inactive)
- GI50 [17]: > 100 µM (inactive)
- GI50 [18]: > 100 µM (inactive)

SMILES: OCC12C3C4C5C3C1C5C42 (stereo not drawn)
- GI50 [1]: > 100 µM (inactive)
- GI50 [2]: > 100 µM (inactive)
- GI50 [3]: 47.3 µM (inactive)
- GI50 [4]: > 100 µM (inactive)
- GI50 [19]: > 100 µM (inactive)
- GI50 [5]: > 100 µM (inactive)
- GI50 [6]: > 100 µM (inactive)
- GI50 [7]: > 100 µM (inactive)
- GI50 [8]: > 100 µM (inactive)
- GI50 [9]: > 100 µM (inactive)
- GI50 [10]: > 100 µM (inactive)
- GI50 [11]: > 100 µM (inactive)
- GI50 [12]: > 100 µM (inactive)
- GI50 [13]: > 100 µM (inactive)
- GI50 [14]: > 100 µM (inactive)
- GI50 [15]: > 100 µM (inactive)
- GI50 [17]: > 100 µM (inactive)
- GI50 [18]: > 100 µM (inactive)

SMILES: COc1ccc(S(=O)(=O)O)cc1NS(=O)(=O)c1ccc(C)cc1
- GI50 [1]: > 100 µM (inactive)
- GI50 [2]: > 100 µM (inactive)
- GI50 [3]: > 100 µM (inactive)
- GI50 [4]: > 100 µM (inactive)
- GI50 [19]: > 100 µM (inactive)
- GI50 [5]: > 100 µM (inactive)
- GI50 [6]: > 100 µM (inactive)
- GI50 [7]: > 100 µM (inactive)
- GI50 [8]: > 100 µM (inactive)
- GI50 [9]: > 100 µM (inactive)
- GI50 [10]: > 100 µM (inactive)
- GI50 [11]: > 100 µM (inactive)
- GI50 [12]: > 100 µM (inactive)
- GI50 [13]: > 100 µM (inactive)
- GI50 [14]: > 100 µM (inactive)
- GI50 [15]: > 100 µM (inactive)
- GI50 [16]: > 100 µM (inactive)
- GI50 [17]: > 100 µM (inactive)
- GI50 [18]: > 100 µM (inactive)

SMILES: Cn1cnc([N+](=O)[O-])c1Sc1nc(N)nc2c1ncn2C1OC(CO)C(O)C1O (stereo not drawn)
- GI50 [1]: 5.38 µM (inactive)
- GI50 [2]: 1.09 µM (active)
- GI50 [3]: 12.7 µM (inactive)
- GI50 [4]: 1.97 µM (inactive)
- GI50 [19]: 9.04 µM (inactive)
- GI50 [5]: 15.2 µM (inactive)
- GI50 [6]: 15.8 µM (inactive)
- GI50 [7]: 44.6 µM (inactive)
- GI50 [8]: 2.28 µM (inactive)
- GI50 [9]: 5.12 µM (inactive)
- GI50 [10]: 0.783 µM (active)
- GI50 [20]: 2.77 µM (inactive)
- GI50 [11]: 4.9 µM (inactive)
- GI50 [12]: 2.73 µM (inactive)
- GI50 [13]: 7.83 µM (inactive)
- GI50 [14]: 4.16 µM (inactive)
- GI50 [15]: 8.41 µM (inactive)
- GI50 [16]: 5.51 µM (inactive)
- GI50 [18]: 6.27 µM (inactive)
